Active and inactive are the calls of the source. The calls are words filed in the database; no cut-off is given here.
How the values were obtained:
MDA-MB-468 [1] = experiment: Cell cycle arrest in human MDA-MB-468 cells assessed as accumulation at G2/M phase at 50 nM after 24 hrs using propidium iodide staining by FACS flow cytometry (reference value: 31.39%); assay type: functional
[2] = biological target: Signal transducer and activator of transcription 3 (Homo sapiens) (UniProt P40763); experiment: Inhibition of STAT3 phosphorylation at Ser727 in human MDA-MB-468 cells after 24 hrs by Western blot analysis; assay type: cell-based
MDA-MB-468 [3] = experiment: Cell cycle arrest in human MDA-MB-468 cells assessed as accumulation at G0/G1 phase at 50 nM after 24 hrs using propidium iodide staining by FACS flow cytometry (reference value: 49.13%); assay type: functional
[4] = biological target: Signal transducer and activator of transcription 3 (Homo sapiens) (UniProt P40763); experiment: Inhibition of STAT3 phosphorylation at Tyr705 in human MDA-MB-468 cells at 500 nM after 24 hrs by Western blot analysis; assay type: cell-based
MDA-MB-468 [5] = experiment: Cell cycle arrest in human MDA-MB-468 cells assessed as accumulation at S phase at 500 nM after 24 hrs using propidium iodide staining by FACS flow cytometry (reference value: 12.46%); assay type: functional
[6] = biological target: Signal transducer and activator of transcription 3 (Homo sapiens) (UniProt P40763); experiment: Suppression of STAT3 mediated cyclinD1 expression in human MDA-MB-468 cells by immunoblotting assay; assay type: cell-based
[7] = biological target: Signal transducer and activator of transcription 3 (Homo sapiens) (UniProt P40763); experiment: Inhibition of STAT3 phosphorylation at Tyr705 in human MDA-MB-468 cells after 24 hrs by Western blot analysis; assay type: cell-based
[8] = biological target: Signal transducer and activator of transcription 3 (Homo sapiens) (UniProt P40763); experiment: Suppression of STAT3 mediated cyclinD1 expression in human MDA-MB-468 cells at G0/G1 phase by immunoblotting assay; assay type: cell-based
MDA-MB-468 [9] = experiment: Induction apoptosis in human MDA-MB-468 cells assessed as procaspase-3-mediated PARP cleavage after 24 hrs by Western blotting method; assay type: functional, cell-based
MDA-MB-468 [10] = experiment: Cytotoxicity against human MDA-MB-468 cells assessed as cell viability after 24 hrs by WST1 assay; assay type: functional, cell-based
MDA-MB-468 [11] = experiment: Cell cycle arrest in human MDA-MB-468 cells assessed as accumulation at subG1 phase at 200 nM after 24 hrs using propidium iodide staining by FACS flow cytometry (reference value: 7.01%); assay type: functional
[12] = biological target: Signal transducer and activator of transcription 3 (Homo sapiens) (UniProt P40763); experiment: Inhibition of translocation of STAT3 into nucleus in human MDA-MB-468 cells at 200 nM after 24 hrs […] by immunoblotting method; assay type: cell-based
[13] = biological target: Signal transducer and activator of transcription 3 (Homo sapiens) (UniProt P40763); experiment: Inhibition of STAT3 expressed in human HeLa cells after 24 hrs by renilla dual-luciferase reporter gene assay; assay type: cell-based
MDA-MB-468 [14] = experiment: Cell cycle arrest in human MDA-MB-468 cells assessed as accumulation at G0/G1 phase at 200 nM after 24 hrs using propidium iodide staining by FACS flow cytometry (reference value: 49.13%); assay type: functional
[15] = biological target: Signal transducer and activator of transcription 3 (Homo sapiens) (UniProt P40763); experiment: Suppression of STAT3 mediated survivin expression in human MDA-MB-468 cells by immunoblotting assay; assay type: cell-based
[16] = biological target: Signal transducer and activator of transcription 3 (Homo sapiens) (UniProt P40763); experiment: Suppression of STAT3 mediated Bcl-XL expression in human MDA-MB-468 cells assessed as complete inhibition at 200 nM by immunoblotting assay; assay type: cell-based
[17] = biological target: Signal transducer and activator of transcription 3 (Homo sapiens) (UniProt P40763); experiment: Inhibition of translocation of STAT3 into nucleus in human MDA-MB-468 cells assessed as localization in cytoplasm at 200 nM after 24 hrs […] by Western blotting method; assay type: cell-based
HCT-116 = experiment: Cytotoxicity against human HCT116 cells assessed as cell viability at 10 to 500 nM after 24 hrs by WST1 assay; assay type: functional, cell-based
[18] = biological target: Signal transducer and activator of transcription 3 (Homo sapiens) (UniProt P40763); experiment: Suppression of STAT3 mediated Bcl-XL expression in human MDA-MB-468 cells by immunoblotting assay; assay type: cell-based
DU-145 = experiment: Cytotoxicity against human DU145 cells assessed as cell viability after 24 hrs by WST1 assay; assay type: functional, cell-based
MDA-MB-468 [19] = experiment: Cell cycle arrest in human MDA-MB-468 cells assessed as accumulation at S phase at 200 nM after 24 hrs using propidium iodide staining by FACS flow cytometry (reference value: 12.46%); assay type: functional
[20] = biological target: Signal transducer and activator of transcription 3 (Homo sapiens) (UniProt P40763); experiment: Suppression of STAT3 mediated Mcl-1 expression in human MDA-MB-468 cells assessed as complete inhibition at 200 nM by immunoblotting assay; assay type: cell-based
MDA-MB-468 [21] = experiment: Cell cycle arrest in human MDA-MB-468 cells assessed as accumulation at G0/G1 phase at 500 nM after 24 hrs using propidium iodide staining by FACS flow cytometry (reference value: 49.13%); assay type: functional
MDA-MB-468 [22] = experiment: Cell cycle arrest in human MDA-MB-468 cells assessed as accumulation at G2/M phase at 200 nM after 24 hrs using propidium iodide staining by FACS flow cytometry (reference value: 31.39%); assay type: functional
[23] = biological target: Signal transducer and activator of transcription 3 (Homo sapiens) (UniProt P40763); experiment: Suppression of STAT3 mediated Mcl-1 expression in human MDA-MB-468 cells by immunoblotting assay; assay type: cell-based
MDA-MB-468 [24] = experiment: Effect on STAT3 protein level in human MDA-MB-468 cells after 24 hrs by Western blot analysis; assay type: functional, cell-based
MDA-MB-468 [25] = experiment: Cell cycle arrest in human MDA-MB-468 cells assessed as accumulation at subG1 phase at 50 nM after 24 hrs using propidium iodide staining by FACS flow cytometry (reference value: 7.01%); assay type: functional
MCF7 = experiment: Cytotoxicity against human MCF7 cells assessed as cell viability at 10 to 500 nM after 24 hrs by WST1 assay; assay type: functional, cell-based
[26] = biological target: Signal transducer and activator of transcription 3 (Homo sapiens) (UniProt P40763); experiment: Suppression of STAT3 mediated VEGF expression in human MDA-MB-468 cells by immunoblotting assay; assay type: cell-based
MDA-MB-468 [27] = experiment: Cell cycle arrest in human MDA-MB-468 cells assessed as accumulation at S phase at 50 nM after 24 hrs using propidium iodide staining by FACS flow cytometry (reference value: 12.46%); assay type: functional
MDA-MB-468 [28] = experiment: Cell cycle arrest in human MDA-MB-468 cells assessed as accumulation at subG1 phase at 500 nM after 24 hrs using propidium iodide staining by FACS flow cytometry (reference value: 7.01%); assay type: functional
MDA-MB-468 [29] = experiment: Cell cycle arrest in human MDA-MB-468 cells assessed as accumulation at G2/M phase at 500 nM after 24 hrs using propidium iodide staining by FACS flow cytometry (reference value: 31.39%); assay type: functional

Sequence of Signal transducer and activator of transcription 3 (Homo sapiens) (P40763 whole entry): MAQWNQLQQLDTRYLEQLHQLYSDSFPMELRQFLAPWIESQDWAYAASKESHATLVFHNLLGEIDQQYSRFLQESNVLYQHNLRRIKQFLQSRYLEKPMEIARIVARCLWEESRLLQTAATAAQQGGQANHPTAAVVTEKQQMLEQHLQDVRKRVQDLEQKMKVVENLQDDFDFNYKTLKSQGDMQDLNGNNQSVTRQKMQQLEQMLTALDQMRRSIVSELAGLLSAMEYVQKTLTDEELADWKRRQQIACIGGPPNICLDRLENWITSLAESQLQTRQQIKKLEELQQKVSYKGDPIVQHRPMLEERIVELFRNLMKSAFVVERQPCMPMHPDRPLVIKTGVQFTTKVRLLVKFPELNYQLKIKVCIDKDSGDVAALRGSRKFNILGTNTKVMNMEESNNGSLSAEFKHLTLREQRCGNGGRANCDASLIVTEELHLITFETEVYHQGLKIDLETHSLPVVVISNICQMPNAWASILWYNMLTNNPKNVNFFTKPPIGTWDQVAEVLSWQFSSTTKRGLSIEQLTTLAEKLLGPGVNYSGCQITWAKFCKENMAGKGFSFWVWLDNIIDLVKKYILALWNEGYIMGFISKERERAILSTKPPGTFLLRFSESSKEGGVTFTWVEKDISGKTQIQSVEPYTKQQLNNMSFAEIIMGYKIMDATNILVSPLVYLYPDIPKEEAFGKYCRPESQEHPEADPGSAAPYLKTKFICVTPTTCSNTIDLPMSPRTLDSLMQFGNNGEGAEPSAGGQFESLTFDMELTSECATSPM

CC[C@@]1(O)C[C@H](O[C@H]2C[C@H](N(C)C)[C@@H](O[C@H]3C[C@H](O)[C@@H](O[C@H]4CC[C@H](O)[C@H](C)O4)[C@H](C)O3)[C@H](C)O2)c2c(O)c3c(c(O)c2[C@H]1O[C@H]1C[C@H](N(C)C)[C@@H](O[C@H]2CC[C@H](O[C@H]4CC[C@H](O)[C@H](C)O4)[C@H](C)O2)[C@H](C)O1)C(=O)c1cccc(O)c1C3=O [COSMOMYCIN C] was tested, and the Activity (MDA-MB-468 [1]) was 26.91%, the inhibition [2] was “inactive” and the Activity (MDA-MB-468 [3]) was 54.64%. For the same compound, the inhibition [4] was “Active”, the Activity (MDA-MB-468 [5]) was 8.78% and the Activity [6] was “Dose-dependent effect”. For the same compound, the inhibition [7] was “Dose-dependent effect”, the Activity [8] was “Active” and the Activity (MDA-MB-468 [9]) was “Active”. The Activity (MDA-MB-468 [10]) was “Dose-dependent effect”, the IC50 (MDA-MB-468 [10]; MDA-MB-468, 24 h) was 210 nM and the Activity (MDA-MB-468 [11]) was 9.47%. For the same compound, the Activity [12] was “Active”, the inhibition [13] was “Dose-dependent effect” and the Activity (MDA-MB-468 [14]) was 59.53%. For the same compound, the Activity [15] was “Dose-dependent effect”, the Activity [16] was “Active” and the inhibition [17] was “Active”. The Activity (HCT-116) was “inactive”, the Activity [18] was “Dose-dependent effect” and the Activity (DU-145) was “Dose-dependent effect”. For the same compound, the Activity (MDA-MB-468 [19]) was 8.82%, the Activity [20] was “Active” and the Activity (MDA-MB-468 [21]) was 49.9%. The Activity (MDA-MB-468 [22]) was 22.18%, the Activity [23] was “Dose-dependent effect” and the Activity (MDA-MB-468 [24]) was “inactive”. For the same compound, the Activity (MDA-MB-468 [25]) was 7.93%, the Activity (MCF7) was “inactive” and the Activity [26] was “Dose-dependent effect”. For the same compound, the Activity (MDA-MB-468 [27]) was 10.52%, the Activity (MDA-MB-468 [28]) was 25.52% and the Activity (MDA-MB-468 [29]) was 15.81%.
CC[C@@]1(O)CCc2c(O)c3c(c(O)c2[C@H]1O[C@H]1C[C@H](N(C)C)[C@@H](O[C@H]2C[C@H](O)[C@@H](O[C@H]4CC[C@H](O)[C@H](C)O4)[C@H](C)O2)[C@H](C)O1)C(=O)c1cccc(O)c1C3=O was tested, and the inhibition [7] was “inactive”, the Activity (MDA-MB-468 [10]) was “inactive” and the inhibition [13] was “inactive”. The Activity (HCT-116) was “inactive”, the Activity (DU-145) was “inactive” and the Activity (MDA-MB-468 [24]) was “inactive”. For the same compound, the Activity (MCF7) was “inactive”.
For CO[C@H](C(=O)[C@@H](O)[C@@H](C)O)[C@@H]1Cc2cc3cc(O[C@H]4C[C@@H](O[C@@H]5C[C@@H](O)[C@H](O)[C@@H](C)O5)[C@H](O)[C@@H](C)O4)c(C)c(O)c3c(O)c2C(=O)[C@H]1O[C@H]1C[C@@H](O[C@@H]2C[C@@H](O)[C@@H](O[C@@H]3C[C@](C)(O)[C@H](O)[C@@H](C)O3)[C@@H](C)O2)[C@H](O)[C@@H](C)O1, the inhibition [13] was “inactive”.

— ChEMBL document CHEMBL2150876, “Cosmomycin C inhibits signal transducer and activator of transcription 3 (STAT3) pathways in MDA-MB-468 breast cancer cell” (Bioorg Med Chem, 2011)
